Test results published in patent US9364492B2, “Method for glycosylation of flavonoid compounds” (SUNTORY HOLDINGS LIMITED, priority 2007, dated 2016).

Assays:
[1] = test system: Cellulase “Onozuka” RS; assay: Glycosyl donor selectivity 2: (+)-catechin, Cellulase “Onozuka” RS and each glycosyl donor, HPLC; format: biochemical, Trichoderma viride; settings: substance as glycosyl donor (10 mg); (+)-catechin 3 mg; 50° C., 1 day, pH 5
Description: (+)-Catechin (3 mg) was mixed with Cellulase “Onozuka” RS (10 mg), each glycosyl donor (10 mg) and 0.1 M acetate buffer (100 μl, pH 5), followed by stirring at 50° C. for 1 day. The glycosyl donors used were maltose, maltotriose, maltotetraose, maltopentaose, maltohexaose, maltoheptaose and dextrin (Nacalai Tesque, Inc., Japan), as well as γ-cyclodextrin (Wako Pure Chemical Industries, Ltd., Japan). After the reaction, the centrifuged supernatant was diluted 10-fold and analyzed by HPLC.

[2] = test system: Cellulase “Onozuka” RS; assay: Glycosyl donor selectivity 1: (+)-catechin, Cellulase “Onozuka” RS and each glycosyl donor, HPLC; format: biochemical, Trichoderma viride; settings: substance as glycosyl donor (20 mg); (+)-catechin 6 mg; 50° C., 1 day, pH 5
Description: (+)-Catechin (6 mg) was mixed with Cellulase “Onozuka” RS (20 mg), each glycosyl donor (20 mg) and 0.1 M acetate buffer (200 μl, pH 5), followed by stirring at 50° C. for 1 day. After the reaction, the centrifuged supernatant was diluted 10-fold and analyzed by HPLC. The glycosyl donors used were cellobiose (Sigma), dextran (Sigma), maltose (Nacalai Tesque, Inc., Japan), carboxymethylcellulose sodium (Nacalai Tesque, Inc., Japan), soluble starch (Nacalai Tesque, Inc., Japan), dextrin (Nacalai Tesque, Inc., Japan), isomaltooligosaccharide (Wako Pure Chemical Industries, Ltd., Japan), α-cyclodextrin (Wako Pure Chemical Industries, Ltd., Japan), γ-cyclodextrin (Wako Pure Chemical Industries, Ltd., Japan) and trehalose dihydrate (Nacalai Tesque, Inc., Japan).

[3] = test system: TRa2; assay: Glycosidase activity of TRa2 on sugars, TLC; format: biochemical, Trichoderma viride; settings: 0.5% sugar, 20 mM acetate buffer pH 5.0, 50° C., 1 hour
Description: The culture supernatant (500 μl) was concentrated about 5-fold using Microcon YM-30 (Amicon). The above concentrate (10 μl) was added to 100 μl of 20 mM acetate buffer (pH 5.0) containing 0.5% maltose, maltotriose, maltotetraose, dextrin, α-cyclodextrin, β-cyclodextrin or γ-cyclodextrin, and reacted at 50° C. for 1 hour.
After completion of the reaction, each sample was analyzed by TLC as follows. The plate used was a silica gel G-60 plate (Merck & Co., Inc.), and the developing solution used was 2-propanol:acetone:0.5 M lactic acid=2:2:1. For detection, the plate was sprayed with sulfuric acid:ethanol=1:9, air-dried and then heated on a hot plate. As a result, none of the sugars was degraded in a culture solution of the control strain (strain C-1) transformed with vector pYE22m.

[4] = test system: TRa2; assay: Substrate specificity: glycosylation of acceptor compounds with dextrin by crude TRa2 enzyme solution, HPLC; format: biochemical, Trichoderma viride; settings: 0.5 mM or 10 mM glycosyl acceptor compound, 10 mg dextrin, pH 5.2, 45° C., 24 hr
Description: The strain TRa2-1 was cultured overnight at 30° C. with shaking in 10 ml YPD medium. After reaching the resting phase, the culture solution was inoculated into the same medium (2% (v/v)) and cultured with shaking at 30° C. for 3 days. After culturing, the supernatant was collected by centrifugation and concentrated 5-fold to give a crude enzyme solution of TRa2. The reaction was performed at 45° C. for 24 hr in 100 μl enzyme reaction solution containing 0.5 mM or 10 mM glycosyl acceptor compound ((+)-catechin, (−)-epigallocatechin-3-O-gallate, esculetin, naringenin, quercetin, daidzein, genistein or kaempferol), 10 mg dextrin, 100 mM acetate buffer (pH 5.2) and the crude enzyme solution, followed by HPLC analysis.

[5] = Solubility of glycoside in water; format: physicochemical
Description: (+)-Catechin or 5-O-α-D-glucopyranosyl-(+)-catechin obtained in Example 3 was added to water at different concentrations ranging from 10 to 450 mg/ml and dissolved by vigorous stirring, followed by centrifugation to remove precipitates. The supernatant was analyzed by HPLC to quantify the amounts of (+)-catechin and 5-O-α-D-glucopyranosyl-(+)-catechin. The same procedure was also repeated to study the solubility of (−)-epigallocatechin-3-β-gallate or 5-O-α-D-glucopyranosyl-(−)-epigallocatechin-3-O-gallate.

[6] = Heat stability of glycoside; format: physicochemical; settings: 100 μM in 10 mM potassium phosphate buffer pH 7.0, 4° C. to 100° C., 0 to 4 hours
Description: After 10 mM potassium phosphate buffer (pH 7.0, 30 μl) containing 100 μM (+)-catechin or 4′-O-α-D-glucopyranosyl-(+)—catechin obtained in Example 4 was treated at different temperatures ranging from 4° C. to 100° C. for 0 to 4 hours, each sample was transferred on ice and mixed with 0.1% TFA (60 μl), followed by HPLC analysis in the same manner as shown in Example 1.

Molecule | Product (% area) 5-Glc [1] [% area] | Product (% area) 7-Glc [1] [% area] | degradation of sugar in culture solution of strain TRa2-1 [3] | area ratio (%) between acceptor compound and glycoside product [4] [%] | other results
maltopentaose | 7.87 | 1.98 |  |  | 
OC[C@H]1O[C@@H]2O[C@H]3[C@H](O)[C@@H](O)[C@@H](O[C@H]4[C@H](O)[C@@H](O)[C@@H](O[C@H]5[C@H](O)[C@@H](O)[C@@H](O[C@H]6[C@H](O)[C@@H](O)[C@@H](O[C@H]7[C@H](O)[C@@H](O)[C@@H](O[C@H]8[C@H](O)[C@@H](O)[C@@H](O[C@H]9[C@H](O)[C@@H](O)[C@@H](O[C@H]1[C@H](O)[C@H]2O)O[C@@H]9CO)O[C@@H]8CO)O[C@@H]7CO)O[C@@H]6CO)O[C@@H]5CO)O[C@@H]4CO)O[C@@H]3CO [γ-Cyclodextrin, γ-cyclodextrin] | 14.53 | 4.73 | degraded |  | Product (% area) 5-Glc [2]: 14.69 % area; Product (% area) 7-Glc [2]: 5.91 % area
O=c1c(-c2ccc(O)cc2)coc2cc(O)cc(O)c12 [genistein] |  |  |  | 6.8 | 
OC[C@H]1O[C@H](Oc2cc(O)cc3c2C[C@H](O)[C@@H](c2ccc(O)c(O)c2)O3)[C@H](O)[C@@H](O)[C@@H]1O [5-O-α-D-glucopyranosyl-(+)-catechin] |  |  |  |  | solubility relative to (+)-catechin [5]: at least 40 fold
OC[C@H]1O[C@H](O[C@H]2[C@H](O)[C@@H](O)C(O)O[C@@H]2CO)[C@H](O)[C@@H](O)[C@@H]1O (mixture of isomers) [Maltose, maltose] |  |  | no degradation |  | 
O=c1ccc2cc(O)c(O)cc2o1 [esculetin] |  |  |  | 3.5 | 
OC[C@H]1O[C@H](O[C@H]2[C@H](O)[C@@H](O)[C@@H](O[C@H]3[C@H](O)[C@@H](O)[C@@H](O[C@H]4[C@H](O)[C@@H](O)C(O)O[C@@H]4CO)O[C@@H]3CO)O[C@@H]2CO)[C@H](O)[C@@H](O)[C@@H]1O (some centres unmarked) [Maltotetraose, maltotetraose] | 7.15 | 1.60 | degraded |  | 
(−)-epigallocatechin-3-O-gallate |  |  |  | 17.7 | 
OC[C@H]1O[C@H](Oc2ccc([C@H]3Oc4cc(O)cc(O)c4C[C@@H]3O)cc2O)[C@H](O)[C@@H](O)[C@@H]1O [4′-O-α-D-glucopyranosyl-(+)-catechin] |  |  |  |  | heat stability (% remaining) [6]: more stable against heat than catechin
O=c1c(O)c(-c2ccc(O)c(O)c2)oc2cc(O)cc(O)c12 [quercetin] |  |  |  | 9.4 | 
O=c1c(-c2ccc(O)cc2)coc2cc(O)ccc12 [daidzein] |  |  |  | 10.7 | 
OC[C@H]1O[C@@H]2O[C@H]3[C@H](O)[C@@H](O)[C@@H](O[C@H]4[C@H](O)[C@@H](O)[C@@H](O[C@H]5[C@H](O)[C@@H](O)[C@@H](O[C@H]6[C@H](O)[C@@H](O)[C@@H](O[C@H]7[C@H](O)[C@@H](O)[C@@H](O[C@H]8[C@H](O)[C@@H](O)[C@@H](O[C@H]1[C@H](O)[C@H]2O)O[C@@H]8CO)O[C@@H]7CO)O[C@@H]6CO)O[C@@H]5CO)O[C@@H]4CO)O[C@@H]3CO [β-cyclodextrin] |  |  | no degradation |  | 
maltohexaose | 7.89 | 2.06 |  |  | 
Oc1cc(O)c2c(c1)O[C@H](c1ccc(O)c(O)c1)[C@@H](O)C2 [(+)-catechin] |  |  |  | 10 | water solubility [5]: substantially insoluble in water
O=C(O[C@@H]1Cc2c(O[C@H]3O[C@H](CO)[C@@H](O)[C@H](O)[C@H]3O)cc(O)cc2O[C@@H]1c1cc(O)c(O)c(O)c1)c1cc(O)c(O)c(O)c1 [5-O-α-D-glucopyranosyl-(−)-epigallocatechin-3-O-gallate] |  |  |  |  | solubility compared to (−)-epigallocatechin-3-O-gallate ([5]; water): significantly increased solubility
maltoheptaose | 7.39 | 1.97 |  |  | 
OC[C@H]1O[C@@H]2O[C@H]3[C@H](O)[C@@H](O)[C@@H](O[C@H]4[C@H](O)[C@@H](O)[C@@H](O[C@H]5[C@H](O)[C@@H](O)[C@@H](O[C@H]6[C@H](O)[C@@H](O)[C@@H](O[C@H]7[C@H](O)[C@@H](O)[C@@H](O[C@H]1[C@H](O)[C@H]2O)O[C@@H]7CO)O[C@@H]6CO)O[C@@H]5CO)O[C@@H]4CO)O[C@@H]3CO [α-Cyclodextrin, α-cyclodextrin] |  |  | no degradation |  | 
O=c1c(O)c(-c2ccc(O)cc2)oc2cc(O)cc(O)c12 [kaempferol] |  |  |  | 3.1 | 
O=C1C[C@@H](c2ccc(O)cc2)Oc2cc(O)cc(O)c21 [naringenin] |  |  |  | 4.4 | 
maltotriose | 2.54 | 0.51 | degraded |  | 
